# Data taken from paper PMC5929560, “Deciphering the binding behavior of flavonoids to the cyclin dependent kinase 6/cyclin D complex” (PLoS ONE, 2018).
# Biological target: CDK6 (Homo sapiens, UniProt Q00534)
# Experiment: Filter-binding kinase assay with [γ-32P]ATP and histone H1
# Type: biochemical
# Details: 25 μM ATP, 20 min at 30°C, triplicate
# Protocol: To quantify the inhibitory activities of flavonoids on CDK6, the filter-binding assay was performed in 96-well filter plates. The total volume for each well was 0.1mL containing a final concentration of 20mM Tris-HCl (pH 7.4), 50mM NaCl, 1mM dithiothreitol, 10mM MgCl2, 25μM ATP (containing 0.25μCi of [γ-^32P]ATP), 0.1μg of CDK6, 10μg of histone H1, and appropriate dilutions of inhibitor. The reaction was initiated by the addition of [γ-^32P]ATP, and then incubated for 20min at 30°C. Samples were applied to P81 phosphocellulose papers strips (Whatman), and the strips were washed in phosphoric acid solution. The radioactivity was measured by liquid scintillation spectrometry. IC50 values were calculated from the dose-response curves. All experiments were carried out in triplicate.
# CDK6 (Homo sapiens, UniProt Q00534), sequence (Q00534 whole entry): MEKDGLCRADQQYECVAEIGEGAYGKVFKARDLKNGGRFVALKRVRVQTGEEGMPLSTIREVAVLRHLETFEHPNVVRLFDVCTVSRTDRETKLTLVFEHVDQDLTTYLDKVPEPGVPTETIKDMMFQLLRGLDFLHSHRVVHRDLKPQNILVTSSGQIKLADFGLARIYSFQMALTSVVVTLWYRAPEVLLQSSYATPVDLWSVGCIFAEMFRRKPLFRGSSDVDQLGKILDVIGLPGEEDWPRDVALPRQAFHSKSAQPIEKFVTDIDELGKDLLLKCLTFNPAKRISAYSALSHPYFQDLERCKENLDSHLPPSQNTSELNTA
# CDK6 (Homo sapiens, UniProt Q00534), sequence (P30281 whole entry partner): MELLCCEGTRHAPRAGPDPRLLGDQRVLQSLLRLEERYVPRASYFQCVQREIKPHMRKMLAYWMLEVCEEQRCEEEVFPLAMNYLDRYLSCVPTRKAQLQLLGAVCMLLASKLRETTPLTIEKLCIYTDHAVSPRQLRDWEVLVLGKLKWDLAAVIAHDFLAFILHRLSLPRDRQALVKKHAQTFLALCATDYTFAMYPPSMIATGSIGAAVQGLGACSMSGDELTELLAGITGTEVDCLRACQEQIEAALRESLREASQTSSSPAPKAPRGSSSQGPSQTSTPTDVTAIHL
row,SMILES,IC50 [µM]
1,"O=c1cc(-c2ccccc2)oc2cc(O)cc(O)c12 [M01, Chrysin]",4.5 ± 0.4
2,"O=c1c(O)c(-c2ccccc2)oc2cc(O)cc(O)c12 [M04, Galangin]",52 ± 2.8

# Further lines, results first:
row,IC50 [µM],SMILES
1,26.3 ± 1.9,"O=c1c(O)c(-c2ccc(O)c(O)c2)oc2cc(O)cc(O)c12 [M06, Quercetin]"
2,19.8 ± 1.6,"O=c1c(O)c(-c2ccc(O)cc2)oc2cc(O)cc(O)c12 [M07, Kaempferol]"
3,38 ± 2.1,"O=c1c(-c2ccc(O)cc2)coc2cc(O)cc(O)c12 [M05, Genistein]"
4,23.3 ± 1.5,"O=c1cc(-c2ccc(O)c(O)c2)oc2cc(O)ccc12 [M15, 3’, 4’, 7-trihydroxyflavone]"

# System: CDK6
# Experiment: not given
# Details: cited from earlier work
row,SMILES,IC50 [µM]
1,"O=c1c(O)c(-c2ccc(O)c(O)c2)oc2cc(O)cc(O)c12 [M06, Quercetin]",26
2,"O=c1c(O)c(-c2ccc(O)c(O)c2)oc2cc(O)ccc12 [M03, Fisetin]",0.85
